In patent US5935945A, “Methods of treating or preventing cardiac arrhythmia” (Merck & Co., Inc., priority 1997, dated 1999):
Read-outs that look alike come from different tables or passages of the source.

Tests used:
[1] = tested on: IK1 (inward rectifier K^+ current); assay: Voltage-clamp measurement of IK1 in guinea pig ventricular myocytes; type: cell-based
Description: (§1) Guinea pig ventricular myocytes were isolated using a modification of the procedure described by Mitra et al., Am. J. Physiol. 249:H1056-60 (1985). Excised hearts were perfused through the aorta (retrograde fashion) at a rate of 10 ml/min with oxygenated, warmed (37° C.) solutions described below. The heart was initially perfused for 7 minutes with a Tyrode's solution containing, (in mM): 132 NaCl, 4 KCl, 1.2 MgCl2, 10 HEPES, 5 glucose, pH=7.2. The heart was then perfused with the same nominally Ca^2+ -free solution containing 150 units/ml Type II collagenase (Worthington) and 0.5 units/ml Type XIV protease (Sigma) for 8 minutes. This perfusate was followed by a Tyrode's solution containing 0.2 mM CaCl2 (without enzymes) for 5 minutes. The digested ventricles were cut into small pieces and gently shaken until cells were visibly dispersed. The cells were stored at room temperature until use, within 8 hours after isolation.
(§2) The suction microelectrode technique described by Giles, W. R. and Shibata, E. F., "Voltage clamp of bull-frog cardiac pacemaker cells: a quantitative analysis of potassium currents", J. Physiol. 368:265-292 (1985) was used to voltage clamp the cells. Microelectrodes were made by using a two stage puller from square bore (1.0 mm o.d.) borosilicate capillary tubing. Pipettes were filled with 0.5 M K gluconate, 25 mM KCl and 5 mM K2 ATP. The electrodes had resistances of 3 to 7 M.OMEGA. when filled with this solution. After establishing whole-cell recording mode, negative pressure was maintained on the pipette using a 1 ml gas-tight syringe attached via air tight tubing to the suction port of the microelectrode holder. This minimized dialysis of the cell with the pipette solution.
(§3) To record K^+ currents, the cells were bathed in a Ca^2+ -free Tyrode's solution containing […]. […] To record Ca^2+ currents, the cells were bathed in Tyrode's solution containing 1.8 mM Ca^2+ without nisoldipine. The cell chamber was superfused with solutions at a rate of 1-2 ml/minute, while maintaining the temperature at 35±1° C. A List EPC-7 clamp amplifier was used to voltage clamp the isolated cells. […] (Sanguinetti M. C. and Jurkiewicz, N. K., "Two components of cardiac delayed rectifier K^+ current: Differential sensitivity to block by Class III antiarrhythmic agents", J. Gen Physiol 1990; 96:194-214.) Data was analyzed as % block from control membrane currents.
(§4) Nisoldipine was prepared as a 4 mM stock solution in polyethylene glycol 200. […] At the final concentrations used neither polyethylene glycol 200 nor dimethyl sulfoxide had any effect on any of the measured membrane currents.
(§5) Selectivity for block of cardiac K^+ channels, IK1, IKr, and IKs was determined as previously described in guinea pig ventricular myocytes (U.S. Pat. No. 5,428,031).

[2] = target: T1, IKr (rapidly activating delayed rectifier K^+ current) (Cavia porcellus, UniProt O08703); assay: Voltage-clamp measurement of IKr in guinea pig ventricular myocytes; type: cell-based; settings: read-out: % Block (Guinea Pig Ventricle) IKr
T1 construct: Guinea pig ventricular myocytes were isolated; from tissue; host or cells: isolated guinea pig ventricular myocytes
T1 sequence (O08703 1-1294): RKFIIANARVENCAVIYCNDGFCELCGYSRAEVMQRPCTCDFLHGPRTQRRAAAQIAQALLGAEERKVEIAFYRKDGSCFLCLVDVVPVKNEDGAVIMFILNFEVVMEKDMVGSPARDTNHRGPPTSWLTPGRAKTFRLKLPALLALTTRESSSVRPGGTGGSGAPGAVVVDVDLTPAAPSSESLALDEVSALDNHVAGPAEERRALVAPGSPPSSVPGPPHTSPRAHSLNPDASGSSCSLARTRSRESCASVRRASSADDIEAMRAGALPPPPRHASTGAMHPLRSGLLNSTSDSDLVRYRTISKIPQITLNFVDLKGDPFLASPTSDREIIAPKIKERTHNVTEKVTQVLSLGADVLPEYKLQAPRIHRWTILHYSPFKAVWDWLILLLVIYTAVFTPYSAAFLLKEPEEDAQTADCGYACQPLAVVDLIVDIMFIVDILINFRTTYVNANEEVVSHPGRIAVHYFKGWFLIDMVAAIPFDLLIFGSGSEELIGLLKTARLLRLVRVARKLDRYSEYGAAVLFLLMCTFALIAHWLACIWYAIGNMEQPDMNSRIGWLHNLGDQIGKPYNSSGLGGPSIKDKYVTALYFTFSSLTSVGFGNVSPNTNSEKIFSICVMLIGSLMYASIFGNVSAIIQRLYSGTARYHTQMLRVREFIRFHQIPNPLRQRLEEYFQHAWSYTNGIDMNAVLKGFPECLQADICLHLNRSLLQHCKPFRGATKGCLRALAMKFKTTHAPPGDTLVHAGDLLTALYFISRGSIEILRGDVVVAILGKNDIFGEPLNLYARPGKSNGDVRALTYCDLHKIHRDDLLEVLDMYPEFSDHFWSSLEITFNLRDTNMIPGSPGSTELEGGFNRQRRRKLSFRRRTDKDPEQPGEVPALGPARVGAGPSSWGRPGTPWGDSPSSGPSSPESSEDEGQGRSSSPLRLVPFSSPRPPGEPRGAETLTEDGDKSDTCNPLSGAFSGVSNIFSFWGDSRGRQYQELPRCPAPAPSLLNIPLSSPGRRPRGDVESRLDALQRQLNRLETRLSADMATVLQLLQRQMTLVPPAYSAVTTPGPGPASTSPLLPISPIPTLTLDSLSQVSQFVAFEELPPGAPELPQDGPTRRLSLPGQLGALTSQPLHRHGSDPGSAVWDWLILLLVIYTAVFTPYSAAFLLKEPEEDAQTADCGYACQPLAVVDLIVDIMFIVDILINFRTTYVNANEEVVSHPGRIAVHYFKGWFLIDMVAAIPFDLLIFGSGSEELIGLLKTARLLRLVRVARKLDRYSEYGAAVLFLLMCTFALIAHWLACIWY
Description: as §1, §2, §3, §4, §5

Description for atrial flutter: In this model, atrial flutter was induced following a Y-shaped surgical lesion comprised of an intercaval incision and a connecting incision across the right atrium. […] Bipolar electrodes also were sutured to the left ventricle for measurement of ventricular excitation threshold (VET) and ventricular relative (VRRP at 2× VET) and effective refractory periods (VERP at 10×VET). The following cardiac electrophysiologic parameters also were measured before test agent administration and at the termination of the study: AH interval, an index of AV nodal conduction; HV interval, an index of His-ventricular conduction time; P-A interval, an index of intra-atrial conduction; and H-EG interval, an index of ventricular conduction; and paced ECG QT interval. AV nodal functional refractory period (AVNFRP) and SA conduction time (SACT) were determined by the introduction of atrial extrastimuli during sinus rhythm, and the monitoring of ventricular response. Electrocardiographic intervals were determined during sinus rhythm; the rate-corrected ECG QTc interval was calculated as: QTc=QT (msec)/√R-R (sec).
Sustained atrial flutter was initiated in three dogs by electrical burst pacing (6-20 Hz) of the atria; atrial rates ranged from 440-530 cycles/min.

SMILES	% Block (Guinea Pig Ventricle) IK1 ([1]; @ 3 μM)	inhibition at 3 µM [2]	atrial effective refractory period, post-treatment (atrial flutter; at doses effective in terminating atrial arrhythmia, increase from 138±5 msec pretreatment)	effect on atrioventricular nodal or ventricular function (atrial flutter; dog, in vivo)	time to termination of atrial arrhythmia after test agent administration (atrial flutter; i.v. bolus 3 mg/kg (two dogs) or 10 mg/kg (third dog))	atrial rate during atrial flutter (atrial flutter; i.v. bolus 3 mg/kg (two dogs) or 10 mg/kg (third dog), initial rates 440-530 cycles/min)	termination of atrial arrhythmia (atrial flutter; i.v. bolus 3 mg/kg, in two of three dogs)	termination of atrial arrhythmia (atrial flutter; i.v. bolus 10 mg/kg, in the third of three dogs)	% Block (Guinea Pig Ventricle) IK1 ([1]; @ 10 μM)	inhibition at 10 µM ([2]; @ 10 μM)
Cc1cc(C)c(CP(=O)(c2ccccc2)c2ccccc2)c(-c2ccc(F)c(C)c2)c1 [Compound C, 2-(Diphenylphosphinylmethyl)-4'-fluoro-3,5,3'-trimethyl-biphenyl]	15.1%	11.1%	153 ± 8 ms	no indication of effect on atrioventricular nodal or ventricular function	10 to 120 s	slowed atrial rate	terminated the atrial arrhythmia	terminated the atrial arrhythmia	–	–
COc1ccc(-n2nc(Sc3ccc(C)cc3)c(C)c(C#N)c2=O)cc1 [Compound B]	4.4%	4.2%	–	–	–	–	–	–	–	–
COc1ccc(-n2nc(Sc3ccc(Cl)cc3)c(C)c(C#N)c2=O)cc1 [Compound A, 6-(4-Chlorophenylthio)-2-(4-methoxyphenyl)-5-methyl-3-oxo-2,3-dihydropyridazine-4-carbonitrile]	–	–	–	–	–	–	–	–	6%	29%
